Results as given in patent US6541468B1, “Indolocarbazole derivatives useful for the treatment of neurodegenerative diseases and cancer” (Bayer Corporation, priority 1998, dated 2003).
Like-named read-outs stand apart in the source and are kept apart here.

Key:
ERK2 activation = assay: Okadaic acid induced ERK2 phosphorylation/activation in SY5Y cells; assay type: cell-based, human; details: 1 μM okadaic acid; for IC50: Homo sapiens
Experimental: SKNSH-SY 5Y cells were plated on fibronectin-coated 6 well (30 mm^2) culture dishes (Biocoat®, Collaborative Biomedical Products, Inc.) and grown to confluence in 5 mL of 50% D-MEM/50% F-12 Nutrient Mixture (Ham) supplemented with 15% heat-inactivated bovine serum (JRH Bioscience), 0.1 mM non-essential amino acids solution, 2 mM glutamine and pen/strep/fungizone (GibcoBRL Life Technologies, Inc.). Cell culture medium was changed every 48 hours.
For drug testing, cells were routinely pretreated with inhibitors in 1 mL (30 mm2) for 60 min at concentrations of 30 nM, 100 nM, 300 nM, […]. Compound stocks were all at 10 mM in DMSO and dilutions were made in DMSO. Cells were then treated with 1 μM okadaic acid (ammonium salt; LC Laboratories, dissolved at 1 mM in DMSO) for 90 min. All experiments, including controls, contained a final concentration of between 0.5 and 1% DMSO.
Cells were detached from 30 mm^2 plates and suspended into 1 mL of ice-cold PBS by gentle trituration, transferred into microcentrifuge tubes and sedimented for 12 seconds at 14,000×g. […] Cell debris was removed by centrifugation at 14,000×g for 5 minutes at 4° C. and cell supernatants were analyzed by anti-ERK2 and anti-tau Western-blotting as described below.
[…] of total cell lysate was run on a 10% tris-glycine polyacrylamide gels (Novex, 1.5 mm×10 well) at 100 volts for 2.5 hors and Western-blotted on nitrocellulose (Novex) overnight at 23 volts or 1.5 hrs at 100V in transfer buffer [Towbin et al. Proc. Natl. Acad. Sci. USA 76, 4350-4354 (1979]) at 4° C. Blots were analyzed for ERK2 and phosphotyrosine immunoreactivity with anti-ERK1+2 (Z033; Zymed Laboratories, Inc.; 1:5,000) and anti-phosphotyrosine (4G10; Upstate Biotechnology Inc.; 1:1,000) mAbs. Blots were also analyzed for phosphorylation-sensitive Tau immuno-reactivity with mAb Tau-1 (Boehringer Mannheim; 1:5,000) and phosphorylation dependent mAb AT8 against FHF-tau (Biosource International; 1:200). Total Tau populations were detected by Tau-1 immunoblotting after treating blots for 16 hrs at 37° C. with 100 units/mL alkaline phosphatase (Gibco BRL) in 5 mL of 50 mM Tris-HCI (pH 8.5), 0.1 mM EDTA. All blots were developed using ECL (enhanced chemiluminescence) Western blotting protocol (Amersham Life Science) with horseradish peroxidase-linked sheep anti-mouse secondary antibody and analyzed on Kodak X-OMAT AR scientific imaging film. […] Changes in tau phosphorylation were assessed by normalizing densitometrically determined mAb Tau-1 immunoreactivities in cell extracts to Tau-1 reaction after dephosphorylation on the blot. […]

cdc2 kinase = target: T1, cdc2 kinase (Homo sapiens, UniProt P06493); assay: cdc2 kinase inhibition assay; assay type: biochemical; details: 0.25 mM ATP, human recombinant tau substrate
T1 construct: Human cdc2 kinase was prepared from nocodazole-arrested HeLa cells; endogenous in cells; host or cells: nocodazole-arrested HeLa cells
Experimental: Preparation of cdc2 Kinase: Human cdc2 kinase was prepared from nocodazole-arrested HeLa cells according to Marshak D. M. er al., J. Cell Biochem., 45, 391-400 (1991).
cdc2 kinase was assayed in 50 μl 25 mM HEPES, pH 7.0, 1 mM Mg^2+, 0.25 mM ATP (150-300 cpm/pmole), 1 mM DTT, using 0.5 ng cdc2 kinase, 5 μg human recombinant tau as substrate, and 0.1 mg/mL BSA a as carrier.
(§1) Enzyme, substrate and inhibitor were preincubated for 5-10 min at 4° C. in assay buffers containing a final concentration of 2% DMSO before initiating the reaction with 0.25 mM γ^2P-ATP. Samples were incubated for 30 min at 37° C. and reactions were terminated with 10% trichloracetic acid/2% sodium pyrophosphate (TCA/PPA), followed by filtration over a glass fiber filtermat (type A) with a cell harvester (Tomtec). The filtermats were washed twice for several hours with TCA/PPA until all background radioactivity was removed. Precipitable counts were quantitated directly on the filtermat with a microbeta scintillation counter system (Wallac-Pharmacia). Inhibitor data were subjected to curve fitting and IC50 values were calculated from these curves using the GraphIt program.

PKC = test system: T2, PKC; assay: PKC inhibition assay; assay type: biochemical, rat; details: footnote a) on the CII value: partial inhibition only
T2 construct: PKC was purified from rat brain using the method of Woodgett J. R. and Hunter T., J. Biol. Chem 262, 4836-4843 (1987)
Experimental: Preparation of PKC: PKC was purified from rat brain using the method of Woodgett J. R. and Hunter T., J. Biol. Chem 262, 4836-4843 (1987).
PKC was assayed in 50μ 25 mM HEPES, pH 7.0, 10 mM MgCl2, 2 mM CaCl2, 1 mM EDTA, 1 mM DTT, 0.25 mM ATP, 0.2 mg/mL phosphatidylserine, using 20 ng PKC and 0.08 mg/mL histone III-S as a substrate.
as §1

[1] = SY5Y, means of triplicate determinations, read-out: Inhibition in SY5Y cells of ERK2 activation IC50

T1 sequence (P06493 whole entry): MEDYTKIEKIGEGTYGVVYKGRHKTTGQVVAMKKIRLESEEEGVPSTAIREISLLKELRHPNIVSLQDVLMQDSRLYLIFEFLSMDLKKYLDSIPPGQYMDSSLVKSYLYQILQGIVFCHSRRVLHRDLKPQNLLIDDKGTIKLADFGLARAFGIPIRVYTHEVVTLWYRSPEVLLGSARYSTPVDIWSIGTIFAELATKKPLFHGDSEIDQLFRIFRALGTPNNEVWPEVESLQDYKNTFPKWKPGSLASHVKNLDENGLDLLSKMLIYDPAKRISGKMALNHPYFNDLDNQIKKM
T1 sequence (P14635 whole entry partner): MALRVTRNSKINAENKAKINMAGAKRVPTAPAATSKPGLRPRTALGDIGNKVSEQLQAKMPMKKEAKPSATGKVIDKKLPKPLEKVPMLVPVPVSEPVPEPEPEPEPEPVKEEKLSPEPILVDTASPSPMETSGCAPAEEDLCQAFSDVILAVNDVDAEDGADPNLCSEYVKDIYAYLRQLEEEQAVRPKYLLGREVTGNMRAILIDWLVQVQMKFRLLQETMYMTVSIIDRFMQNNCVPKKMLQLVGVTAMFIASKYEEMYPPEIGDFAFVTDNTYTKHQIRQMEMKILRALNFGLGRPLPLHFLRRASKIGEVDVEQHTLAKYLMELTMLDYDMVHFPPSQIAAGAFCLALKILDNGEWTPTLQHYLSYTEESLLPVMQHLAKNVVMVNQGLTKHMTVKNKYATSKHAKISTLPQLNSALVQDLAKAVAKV

Row | SMILES | IC50 (ERK2 activation; [1]) | IC50 (cdc2 kinase) | IC50 (PKC) | IC50 (ERK2 activation; SY5Y cells, read-out: IC50 for prevention of okadaic acid induced ERK2 phosphorylation/activation (FIG. 4)) | Concentration at which prevention of ERK2 phosphorylation/activation is complete (ERK2 activation; SY5Y cells)
1 | CNC(=O)[C@]1(O)CC2CC1n1c3ccccc3c3c4c(c5c6ccccc6n2c5c31)C(=O)NC4=O (stereo partly drawn) [CII, 9,12-Methano-1H-diindolo[1,2,3-fg:3′,2′,1′-kl]pyrrolo[3,4-I][1,6] benzodiazocine-10-carboxamide, 2,3,9,10,11,12-hexahydro-10-hydroxy-N-methyl-1,3-dioxo-(9α,10β,12α)] | 0.57 µM | 0.044 µM | 0.65 µM |  | 
2 | COC(=O)[C@@]1(O)C[C@H]2C[C@@H]1n1c3ccccc3c3c4c(c5c6ccccc6n2c5c31)C(=O)NC4=O (relative stereo) [CIII, 9,12-Methano-1H-diindolo[1,2,3-fg:3′,2′,1′-kl]pyrrolo[3,4-I][1,6] benzodiazocine-10-carboxylic acid, 2,3,9,10,11,12-hexahydro-10-hydroxy-1,3-dioxomethyl ester, (9α,10β,12α)] | 5.7 µM | 3.8 µM | > 100 µM | ~1 µM | 10 µM
